Reference: US20250197914A1, “MICROBIAL MEDIUM COMPOSITION FOR PRODUCING RETINOL, COMPRISING ANTI-OXIDANT, AND USE THEREOF” (CJ CHEILJEDANG CORPORATION, priority 2022, published 2025)

Test system: retinol-producing strains (Yarrowia lipolytica)
Assay: Flask test of retinol production of retinol-producing strains with antioxidants in the medium
Format: cell-based
Settings: antioxidant added to YLMM2 medium at 0.01% to 0.05%; 30° C., 200 rpm; 48 hour culture; HPLC
Procedure: A flask test was performed to compare the degree of retinol production of retinol-producing strains according to the presence and absence, and the type of antioxidants. Each retinol production platform strain was inoculated in a 250 ml corner-baffled flask containing 25 ml of Yarrowia lipolytica minimal media2 (YLMM2) at an initial OD of 4, and 4 types of antioxidants, 3,5-Di-tert-4-butylhydroxytoluene (BHT), propyl gallate (PG), vitamin C, and glutathione (GSH), were added to the medium at a concentration of 0.01% to 0.05%, respectively. Culturing was carried out under conditions of 30° C. and 200 rpm.
To evaluate the degree of growth according to culture time, the OD value at a wavelength of 600 nm was measured using a spectrophotometer, and the method of measuring retinol concentrations is as follows; After the culture was completed, 1 ml of the culture medium was centrifuged to remove the supernatant, then 0.5 ml of dimethyl sulfoxide (DMSO, Sigma) was added and the cells were disrupted by agitation at 55° C. for 10 minutes (agitation; 2,000 rpm). Next, 0.5 ml of acetone (Sigma) containing 4% BHT was added and agitated (2,000 rpm) for 15 min at 45° C., and retinoids extracted in this manner were quantitatively analyzed using HPLC equipment.
Considering that the sugar consumption rate may vary depending on the type of antioxidants which were added to the medium, BHT, PG, vitamin C, and GSH were each cultured for 48 hours. After 48 hour-incubation, retinal and retinol were extracted and quantified.

| SMILES | retinol concentration increase as compared to the control group without antioxidants |
| --- | --- |
| Cc1cc(C(C)(C)C)c(O)c(C(C)(C)C)c1 [BHT, 3,5-di-tert-4-butylhydroxytoluene] | up to 1.89 times |
| N[C@@H](CCC(=O)N[C@@H](CS)C(=O)NCC(=O)O)C(=O)O [GSH, glutathione] | ≤ 1.21 times |
| CCCOC(=O)c1cc(O)c(O)c(O)c1 [PG, propyl gallate] | ≤ 1.82 times |
| O=C1O[C@H]([C@@H](O)CO)C(O)=C1O [vitamin C, ascorbic acid] | ≤ 1.44 times |
